Results from patent publication US20220280593A1, “METHODS FOR […] CORONARY ARTERY BYPASS GRAFT PROCEDURE” (Stealth BioTherapeutics Inc., priority 2009, published 2022).
“Also recorded” adds a separate entry of the source. Non-standard residues stand in square brackets, D forms with d. No end group written: not given here.

Legend:
mu-opioid receptor = details: cited from earlier work
[1] = tested on: several mammalian cell types; details: energy-independent manner; Zhao et al., 2003; cited from earlier work
[2] = tested on: New Zealand white rabbits; experiment: Rabbit model of acute myocardial ischemia and reperfusion (30 min ischemia, 180 min reperfusion), infarct size by histomorphometry; format: in vivo
Description: New Zealand white rabbits were used in this study. The rabbits were males and >10 weeks in age. Environmental controls in the animal rooms were set to maintain temperatures of 61° to 72° F. and relative humidity between 30% and 70%. Room temperature and humidity were recorded hourly, and monitored daily. There were approximately 10-15 air exchanges per hour in the animal rooms. Photoperiod was 12-hr light/12-hr dark (via fluorescent lighting) with exceptions as necessary to accommodate dosing and data collection. Routine daily observations were performed. Harlan Teklad, Certified Diet (2030C), rabbit diet was provided approximately 180 grams per day from arrival to the facility. In addition, fresh fruits and vegetables were given to the rabbit 3 times a week.
The peptide D-Arg-2′6′-Dmt-Lys-Phe-NH2 (sterile lyophilized powder) was used as the test article. Dosing solutions were formulated at no more than 1 mg/ml, and were delivered via continuous infusion (IV) at a constant rate (e.g., 50 μL/kg/min). Normal saline (0.9% NaCl) was used as a control.
The test/vehicle articles were given intravenously, under general anesthesia, in order to mimic the expected route of administration in the clinical setting of AMI and PTCA. Intravenous infusion was administered via a peripheral vein using a Kd Scientific infusion pump (Holliston, MA 01746) at a constant volume (e.g., 50 μL/kg/min).
The study followed a predetermined placebo and sham controlled design. In short, 10-20 healthy, acclimatized, male rabbits were assigned to one of three study arms (approximately 2-10 animals per group). Arm A (n=10, CTRL/PLAC) includes animals treated with vehicle (vehicle; VEH, IV); Arm B (n=10, treated) includes animals treated with peptide; Arm C (n=2, SHAM) includes sham-operated time-controls treated with vehicle (vehicle; VEH, IV) or peptide.
In all cases, treatments were started approximately 10 min after the onset of a 30 min ischemic insult (coronary occlusion) and continued for up to 3 h following reperfusion. In all cases, cardiovascular function was monitored both prior to and during ischemia, as well as for up to 180 min (3 h) post-reperfusion. The experiments were terminated 3 h post-reperfusion (end of study); irreversible myocardial injury (infarct size by histomorphometery) at this time-point was evaluated, and was the primary-end-point of the study.
Following hemodynamic stabilization and baseline measurements, the animals were subjected to an acute 30 min ischemic insult by tightening of the LAD/LCX coronary artery snares. […]
Histopathology/Histomorphometery. At the completion of the protocol, irreversible myocardial injury (i.e., infarction) resulting from the I/R insult was evaluated. […]

[3] = Stability of the drug substance; format: physicochemical
Description: Study Drug. D-Arg-2′6′-Dmt-Lys-Phe-NH2 is a small peptide (CAS No. 736992-21-5). Its molecular weight is 639.8 (free base). […] The drug substance will be provided as a lyophilized powder in sterile glass vials. Each vial will be reconstituted with 10 mL of sterile D5W by the unblinded pharmacist at each site.

mitochondria [4] = details: cited from earlier work
mitochondria [5] = details: cited from earlier work; remark: listed apart in the source
animal model of ARI = details: cited from earlier work
wild type mice = details: treatment at 0, 6, 24 and 48 hours after 30 min occlusion; U.S. Patent Publication No. 20070129306; cited from earlier work
[6] = IV continuous infusion from 10 min into 30 min ischemia through 180 min reperfusion, n = 10, p < 0.05 vs placebo
[7] = 45 min ischemia and 24 h reperfusion

In the case of Tyr-D-Arg-Phe-Lys-NH2, the “mu-opioid receptor agonist activity” value (mu-opioid receptor) is listed as “has mu-opioid receptor agonist activity”.

In the case of 2′,6′-Dmt-D-Arg-Phe-Lys-NH2, the “penetration of the plasma membrane” value [1] is given as “readily penetrates”.

With D-Arg-2′,6′-Dmt-Lys-Phe-NH2 the “myocardial infarct size compared to the control” value ([2]; 30 min ischemia, infusion continued 180 min after reperfusion, listed as peptide) was “decreased infarct size; also recorded: able to reduce myocardial infarct size”, the “Myocardial Area IA/AR (infarcted area / area at risk)” value [2, 6] was 24.7 ± 4.7% and the “Myocardial Area IA/LV (infarcted area / left ventricular area)” value [2, 6] was 16.2 ± 3.4%. The myocardial salvage ([2]; treatment for less than 3 hours after reperfusion, i.e., 30 min, data not shown) was “comparable myocardial salvage”, the resistance to oxidation [3] was “resistant to oxidation” and the “temperature up to which stable” value [3] was “up to 40 °C”. The stability to light ([3]; powder or liquid form) was “stable to light”, the “concentration in the mitochondrial pellet relative to extracellular fluid” value (mitochondria [4]) was “approximately 5000 fold” and the “intracellular concentration relative to extracellular fluid” value (mitochondria [4]) was “six”. For the same substance, the “adenosine triphosphate (ATP) levels” value (mitochondria [5]) was “maintaining”, the “electron transfer within the mitochondrial electron transport chain” value (mitochondria [5]) was “facilitating” and the “loss of mitochondrial membrane potential” value (mitochondria [5]) was “preventing”. The “mitochondrial respiration (oxygen consumption)” value (mitochondria [5]) was “maintaining”, the “mitochondrial swelling (mPTP opening)” value (mitochondria [5]) was “preventing” and the “reactive oxygen species (ROS)” value (mitochondria [5]) was “scavenging”. The “release of cytochrome c” value (mitochondria [5]) was “preventing”, the histopathological score (animal model of ARI; [7]) was “significantly improved” and the “rate of ATP production after reperfusion” value (animal model of ARI; [7]) was “significantly increased”. For the same substance, the “incidence of ARI caused by ischemia-reperfusion” value (animal model of ARI; U.S. Patent Publication No. 20090221514) was “effective in reducing”, the “interstitial fibrosis, tubular apoptosis, macrophage infiltration and tubular proliferation” value (animal model of ARI; animal model of ARI) was “effective in reducing” and the “hemispheric swelling compared to saline controls” value (wild type mice) was “significant reduction”. For the same substance, the “infarct volume compared to saline controls” value (wild type mice) was “significant reduction” and the “mu-opioid receptor agonist activity” value (mu-opioid receptor) was “does not have mu-opioid receptor agonist activity”.

For F[dR]FK-NH2, the “mu-opioid receptor agonist activity” value (mu-opioid receptor) is listed as “does not have mu-opioid receptor agonist activity”.
